Results: patent US20090181115A1, “Method of Screening for Compounds That Alter Skin and/or Hair Pigmentation” (priority 2006, published 2009)
Entries after “also recorded” stand apart in the source; their conditions may differ.

Legend:
[1] = tested on: lightly pigmented human melanocytes; experiment: Quantitative assessment of melanogenesis (melanin content) after siRNA knockdown in human melanocytes; format: cell-based; details: replicated x3
Description: A decrease in post-treatment melanin content is noted for duplex (492) in lightly pigmented human melanocytes (replicated ×3).
(§1) • Cultured Cells (trypsinised off of 6-well culture plates) were lysed on ice for 20 minutes in 1.5 ml eppendorfs using 100 μl per sample of 1% triton X-100 in dPBS containing protease inhibitor cocktail (Sigma-Aldrich, Poole, UK). Cell extracts were centrifuged (10 minutes at 13000 g) to separate melanin and cell debris from the solubilised protein. The protein concentration of each supernatant fraction was determined by BCA assay as described in A).
• To each pellet of melanin+cell debris obtained in section 2), 0.5 ml of diethyl ether:ethanol (1:1 ratio) was added. Eppendorfs were vortexed vigorously for 30 seconds and centrifuged at 13000 g for 5 minutes. The ether layer was carefully removed to waste and a further 0.5 ml was added. The tubes were agitated and centrifuged as before. The liquid phase was again removed and the melanin pellets were allowed to air dry at room temperature for 10 minutes. […] OD^45 0 of each sample was determined and the melanin content of each fraction was calculated from a synthetic melanin standard curve, prepared as described above. In treatment comparisons, results were expressed as μg melanin per μg protein. […]

NCKX5 = experiment: Western blot of NCKX5 protein 5 days after siRNA mediated knockdown; format: cell-based, human; details: 5 days after siRNA knockdown, rabbit anti-NCKX5 pAb (anti C-terminus peptide)
Description: Using western blot we have investigated NCKX5 protein expression 5 days after siRNA mediated knockdown (all 5 siRNA duplexes and controls were tested). Western blot was also used to evaluate the expression and processing (maturation) of tyrosinase (tyr) in the same samples. SDS-PAGE (10% PA for NCKX5, 4-12% for tyr, 5 μg protein/lane). A) Western blot for NCKX5: Detection via rabbit anti-NCKX5 pAb (anti C-terminus peptide). B) Western blot for tyr, via goat pAb (Santa Cruz). 1=No treatment, 2=scrambled siRNA control, 3-7=siRNA's 185, 260, 301, 492, 1110. […] These bands are absent in the samples where SLC24A5-specific duplexes were used (lanes 3-7). It is possible that the doublet represents the presence of alternate SLC24A5 splice variants.
as §1
• 20 μg protein (as determined by BCA assay) was reconstituted into 20 μl of 1×LDS loading buffer (Invitrogen Ltd, Paisley, UK) containing 1× reducing agent (Invitrogen Ltd, Paisley, UK), heated to 40° C. for 30 minutes and loaded onto 10% Novex bis-tris acrylamide gels with 1×MOPS running buffer (Invitrogen Ltd, Paisley, UK). Kaleidoscope molecular weight markers (Bio-Rad Laboratories Ltd, Hemel Hempstead, UK) were run alongside samples for size determinations. Protein was transferred onto PVDF membrane by electrophoresis transfer, using a Bio-Rad mini-cell II trans-blotter and 1× Tris-Glycine transfer buffer (Invitrogen Ltd, Paisley, UK)+15% v/v methanol (100V for 1 hour).
• Membranes containing transferred protein were “blocked” using 2% w/v skimmed milk protein (SMP) in PBS+0.05% tween20 (PBST) for 1 hour with gentle agitation. Peptide affinity purified rabbit polyclonal antibody (raised using a peptide equivalent to the C-terminus of NCKX5-GNNKIRGCGG) was diluted to 0.5 μg/ml using 2% SMP in PBST. The diluted antibody was incubated with the membrane for 2 hours at room temperature. The membrane was then rinsed with PBST (4×5 minutes washes). Peroxidase conjugated anti-rabbit IgG (Jackson ImmunoResearch Laboratories Inc. PA, USA) was diluted 1/4000 using 2% SMP in PBST and was incubated with the membranes for 1 hour. Finally, membranes were washed using 6×5 minute rinses with PBST. SuperSignal Western pico (Perbio Science UK Ltd, Northumberland, UK) chemiluminescence detection reagents was used to probe the membranes for secondary antibody binding as per the manufacturers instructions. Visualisation of results was via a Chemidoc XRS imaging system (Bio-Rad Laboratories Ltd, Hemel Hempstead, UK).

B16 cells [2] = experiment: Melanin synthesis in B16 cells after SLC24A5 siRNA knockdown (OD450 of media); format: cell-based, mouse; details: transfected 8 hours, cultured a further 3 days
Description: Cells were transfected (lipofectamine 2000) with siRNA duplexes or controls for 8 hours. Cells were cultured for a further 3 days prior to analyses.
(§2) Media was removed and melanin quantified by OD450. Cell viability measured using Wst1 proliferation reagent (Roche) before lysis using 1% triton ×100. Protein content of each well was determined by BCA assay.
Experiment (each in quadruplicate) reproduced x3 consecutively.
24 h prior to transfection, B16 cells were plated at 25,000 cells/well in a 48-well plate. Cells in quadruplicate wells were transfected with 2 μg/ml Lipofectamine 2000 and 50 nM Stealth™ RNAi duplexes targeting SLC24A5 or scrambled controls (from Invitrogen). […]
Cells were incubated with transfection reagents for 6-8 h, reagents were then removed and replaced with phenol red-free DMEM supplemented with 10% FCS and 4 mM L-glutamine for 72 h. At 72 h, cells were taken for viability and total protein determination and supernatants analysed for melanin production.
• The phenol free DMEM culture media was removed from each well for quantification of secreted melanin. […] Soluble fractions were kept for protein quantification.
• 1 mg synthetic melanin (Sigma-Aldrich, Poole, UK) was dissolved in 50 μl of 100% DMSO. […] This standard was serially diluted (5-fold) in media+FCS to give a standard curve for quantification of melanin in sample preparations (range from 1000 to 8 μg/ml). […]

B16 cells [3] = experiment: Cell viability of B16 cells after siRNA treatment (Wst1 assay); format: cell-based, mouse; details: end of each experiment
Description: as §2
Cell viability and protein content determination post-treatment could help to identify the manner in which SLC24A5 modulates pigment production in B16 melanocytes. […] This conclusion is supported by data obtained for protein content.
• The phenol free DMEM culture media was removed from each well for quantification of secreted melanin. Each well of the culture plate was then rinsed once with Dulbeccos phosphate buffered saline (dPBS) (Sigma-Aldrich, Poole, UK) and replaced with 0.5 ml Wst1 reagent (diluted 1/10 in media) (Roche Diagnostics Ltd, West Sussex, UK). The culture plate was incubated at 37° C., 5% CO2 for 30 minutes. The Wst1 reagent was removed from each well for determination of cell viability and each well was again rinsed with dPBS. 200 μl of 1% w/v Triton X-100 (Sigma-Aldrich, Poole, UK) in dPBS was added to each well of the culture plate. The plate was incubated for 20 minutes at 4° C. on an orbital shaker. Supernatant from each well was removed and centrifuged at 13000 g for 5 minutes to remove cell debris. Soluble fractions were kept for protein quantification.
• The OD^450 of 100 μl fractions (measured in duplicate) of post-incubation Wst1 reagent was measured. […]

“duplex 492: Stealth siRNA duplex against human SLC24A5, exon 3 & 4 boundary; 5′ GCACCATCCTTGGATCTGCAATTTA 3′ (antisense TAAATTGCAGATCCAAGGATGGTGC; Stealth chemically modified siRNA duplex, pattern not given here)” was tested, and the post-treatment melanin content [1] was “decrease” and the “NCKX5 bands of approx. 42 and 44 KDa on western blot” value (“NCKX5 bands of approx. 42 and 44 KDa” for short) (NCKX5) was “absent”.

In the case of “duplex 567: Stealth RNAi duplex targeting murine SLC24A5; sense 5′-CCUCUUCCGAGACUGUGCAGUGUAU-3′ (antisense GGAGAAGGCUCUGACACGUCACAUA; Stealth chemically modified RNAi duplex, pattern not given here; one strand is listed 3' to 5')”, the “melanin synthesis / pigment production” value (B16 cells [2]) is reported as “visibly decreased” and the “cell viability / toxicity” value (B16 cells [3]) is reported as “significant toxicity”.

“duplex 260: Stealth siRNA duplex against human SLC24A5, exon 2; 5′ GAGCGCAGAGATGGAGGCATCATAA 3′ (antisense TTATGATGCCTCCATCTCTGCGCTC; Stealth chemically modified siRNA duplex, pattern not given here)” was tested, and the “NCKX5 bands of approx. 42 and 44 KDa” value (NCKX5) was “absent”.

For “duplex 1110: Stealth siRNA duplex against human SLC24A5, exon 7; 5′ CCGCATTTACATATATCCTGGTTTG 3′ (antisense CAAACCAGGATATATGTAAATGCGG; Stealth chemically modified siRNA duplex, pattern not given here)”, the “NCKX5 bands of approx. 42 and 44 KDa” value (NCKX5) was “absent”.

“duplex 185: Stealth siRNA duplex against human SLC24A5, exon 1 & 2 boundary; 5′ AGGGCCACAGGAAATAGCACCCAAT 3′ (antisense ATTGGGTGCTATTTCCTGTGGCCCT; Stealth chemically modified siRNA duplex, pattern not given here)” was tested, and the “NCKX5 bands of approx. 42 and 44 KDa” value (NCKX5) was “absent”.

With “duplex 301: Stealth siRNA duplex against human SLC24A5, exon 2; 5′ CGTTTACATGTTCATGGCCATATCT 3′ (antisense AGATATGGCCATGAACATGTAAACG; Stealth chemically modified siRNA duplex, pattern not given here)” the “NCKX5 bands of approx. 42 and 44 KDa” value (NCKX5) was “absent”.

“duplex 762: Stealth RNAi duplex targeting murine SLC24A5; sense 5′-CAGAGCUAUGGAGGAGAGAAUUGAA-3′ (antisense GUCUCGAUACCUCCUCUCUUAACUU; Stealth chemically modified RNAi duplex, pattern not given here; one strand is listed 3' to 5')” was tested, and the “melanin synthesis / pigment production” value (B16 cells [2]; listed as 762) was “visibly decreased; also recorded: reduce pigment production” and the “cell viability / toxicity” value (B16 cells [3]) was “without affecting viability”.
